Results: PubChem BioAssay (NCI)
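Dose response: 5 concentrations. Exposure: 48 h. Format: 96-well plates. Endpoint: linear interpolation; highest concentration if not reached. TGI marks complete inhibition of growth.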

What was measured:
Test in all cases: NCI anticancer screen, dose series, 48 h
SK-MEL-5 melanoma = test system: SK-MEL-5 melanoma
HS 578T breast = test system: HS 578T breast
HOP-92 NSCLC = test system: HOP-92 NSCLC
OVCAR-5 ovarian = test system: OVCAR-5 ovarian
SF-295 CNS = test system: SF-295 CNS
RPMI-8226 leukemia = test system: RPMI-8226 leukemia
786-0 renal = test system: 786-0 renal
LOX IMVI melanoma = test system: LOX IMVI melanoma
NCI-H460 lung = test system: NCI-H460 lung
HT29 colon = test system: HT29 colon
DU-145 prostate = test system: DU-145 prostate
HCT-116 colon = test system: HCT-116 colon
UO-31 renal = test system: UO-31 renal
EKVX NSCLC = test system: EKVX NSCLC
PC-3 prostate = test system: PC-3 prostate
SNB-19 CNS = test system: SNB-19 CNS
SF-268 CNS = test system: SF-268 CNS
CCRF-CEM leukemia = test system: CCRF-CEM leukemia
HL-60(TB) leukemia = test system: HL-60(TB) leukemia

Nc1sccc1S(=O)(=O)c1ccsc1N
TGI (SK-MEL-5 melanoma): > 100 µM | TGI (HS 578T breast): > 100 µM | TGI (HOP-92 NSCLC): > 100 µM | TGI (OVCAR-5 ovarian): > 100 µM | TGI (SF-295 CNS): > 100 µM | TGI (RPMI-8226 leukemia): > 100 µM | TGI (786-0 renal): > 100 µM | TGI (LOX IMVI melanoma): > 100 µM | TGI (NCI-H460 lung): > 100 µM | TGI (HT29 colon): > 100 µM | TGI (DU-145 prostate): > 100 µM | TGI (HCT-116 colon): > 100 µM | TGI (UO-31 renal): > 100 µM | TGI (EKVX NSCLC): > 100 µM | TGI (PC-3 prostate): > 100 µM | TGI (SNB-19 CNS): > 100 µM | TGI (SF-268 CNS): > 100 µM

Fc1ccc(C2(CCCN3CCc4[nH]c5cc(F)ccc5c4C3)OCCO2)cc1
TGI (CCRF-CEM leukemia): 31.4 µM | TGI (SK-MEL-5 melanoma): 23.5 µM | TGI (HS 578T breast): 17.4 µM | TGI (HOP-92 NSCLC): 10.2 µM | TGI (OVCAR-5 ovarian): 20.5 µM | TGI (SF-295 CNS): 27.4 µM | TGI (RPMI-8226 leukemia): 28.1 µM | TGI (786-0 renal): 27.1 µM | TGI (LOX IMVI melanoma): 25.4 µM | TGI (HL-60(TB) leukemia): 25.7 µM | TGI (NCI-H460 lung): 24.1 µM | TGI (HT29 colon): 15 µM | TGI (DU-145 prostate): 28 µM | TGI (HCT-116 colon): 24 µM | TGI (UO-31 renal): 10.8 µM | TGI (EKVX NSCLC): 29.1 µM | TGI (SNB-19 CNS): 23.3 µM | TGI (SF-268 CNS): 30.9 µM

Nc1nc(N)nc(-c2cnc3ccccc3c2)n1
TGI (CCRF-CEM leukemia): 65.9 µM | TGI (HS 578T breast): > 100 µM | TGI (HOP-92 NSCLC): > 100 µM | TGI (OVCAR-5 ovarian): > 100 µM | TGI (SF-295 CNS): > 100 µM | TGI (786-0 renal): > 100 µM | TGI (LOX IMVI melanoma): > 100 µM | TGI (NCI-H460 lung): > 100 µM | TGI (DU-145 prostate): > 100 µM | TGI (HCT-116 colon): > 100 µM | TGI (UO-31 renal): > 100 µM | TGI (EKVX NSCLC): > 100 µM | TGI (PC-3 prostate): > 100 µM | TGI (SNB-19 CNS): > 100 µM | TGI (SF-268 CNS): > 100 µM

COc1cccc(N=N/C(=N/NC(=O)c2cc(Cl)ccc2O)c2ccc(N(CCC#N)CCC#N)cc2C)c1
TGI (CCRF-CEM leukemia): > 100 µM | TGI (SK-MEL-5 melanoma): > 100 µM | TGI (HS 578T breast): > 100 µM | TGI (OVCAR-5 ovarian): > 100 µM | TGI (SF-295 CNS): > 100 µM | TGI (RPMI-8226 leukemia): > 100 µM | TGI (786-0 renal): > 100 µM | TGI (NCI-H460 lung): > 100 µM | TGI (HT29 colon): > 100 µM | TGI (DU-145 prostate): > 100 µM | TGI (HCT-116 colon): > 100 µM | TGI (UO-31 renal): > 100 µM | TGI (EKVX NSCLC): > 100 µM | TGI (PC-3 prostate): > 100 µM | TGI (SNB-19 CNS): > 100 µM | TGI (SF-268 CNS): > 100 µM

CCC(C)[C@H]1C(=O)N=C(N)N1C(=O)OCc1ccccc1 (some centres undefined)
TGI (SK-MEL-5 melanoma): > 100 µM | TGI (OVCAR-5 ovarian): > 100 µM | TGI (SF-295 CNS): > 100 µM | TGI (RPMI-8226 leukemia): > 100 µM | TGI (786-0 renal): > 100 µM | TGI (LOX IMVI melanoma): > 100 µM | TGI (HL-60(TB) leukemia): > 100 µM | TGI (NCI-H460 lung): > 100 µM | TGI (HT29 colon): > 100 µM | TGI (DU-145 prostate): > 100 µM | TGI (HCT-116 colon): > 100 µM | TGI (UO-31 renal): > 100 µM | TGI (EKVX NSCLC): > 100 µM | TGI (PC-3 prostate): > 100 µM | TGI (SNB-19 CNS): > 100 µM | TGI (SF-268 CNS): > 100 µM

NS(=O)(=O)c1cc(S(N)(=O)=O)c(NC(=O)Nc2ccc(Cl)c(Cl)c2)c(Cl)c1Cl
TGI (SK-MEL-5 melanoma): > 100 µM | TGI (HS 578T breast): > 100 µM | TGI (HOP-92 NSCLC): > 100 µM | TGI (OVCAR-5 ovarian): > 100 µM | TGI (SF-295 CNS): > 100 µM | TGI (RPMI-8226 leukemia): > 100 µM | TGI (786-0 renal): > 100 µM | TGI (LOX IMVI melanoma): > 100 µM | TGI (NCI-H460 lung): > 100 µM | TGI (HT29 colon): > 100 µM | TGI (HCT-116 colon): > 100 µM | TGI (UO-31 renal): > 100 µM | TGI (EKVX NSCLC): > 100 µM | TGI (PC-3 prostate): > 100 µM | TGI (SNB-19 CNS): > 100 µM | TGI (SF-268 CNS): > 100 µM

Cc1ccc(/C=C/C(=O)c2sc(C(N)=S)nc2C)cc1
TGI (CCRF-CEM leukemia): > 100 µM | TGI (SK-MEL-5 melanoma): > 100 µM | TGI (HOP-92 NSCLC): > 100 µM | TGI (OVCAR-5 ovarian): > 100 µM | TGI (SF-295 CNS): > 100 µM | TGI (RPMI-8226 leukemia): > 100 µM | TGI (786-0 renal): > 100 µM | TGI (LOX IMVI melanoma): > 100 µM | TGI (HL-60(TB) leukemia): > 100 µM | TGI (NCI-H460 lung): > 100 µM | TGI (HT29 colon): > 100 µM | TGI (UO-31 renal): > 100 µM | TGI (EKVX NSCLC): > 100 µM | TGI (SF-268 CNS): > 100 µM

Nn1c(-c2ccccc2Nc2ccccc2-c2n[nH]c(=S)n2N)n[nH]c1=S
TGI (CCRF-CEM leukemia): > 50 µM | TGI (SK-MEL-5 melanoma): > 50 µM | TGI (HOP-92 NSCLC): > 50 µM | TGI (OVCAR-5 ovarian): > 50 µM | TGI (SF-295 CNS): > 50 µM | TGI (RPMI-8226 leukemia): > 50 µM | TGI (786-0 renal): > 50 µM | TGI (LOX IMVI melanoma): > 50 µM | TGI (HL-60(TB) leukemia): > 50 µM | TGI (NCI-H460 lung): > 50 µM | TGI (HT29 colon): > 50 µM | TGI (DU-145 prostate): > 50 µM | TGI (HCT-116 colon): > 50 µM | TGI (UO-31 renal): > 50 µM | TGI (EKVX NSCLC): > 50 µM | TGI (PC-3 prostate): > 50 µM | TGI (SNB-19 CNS): > 50 µM | TGI (SF-268 CNS): > 50 µM

Cn1nc(-c2ccccc2)c(C(=O)/C=C/c2ccccc2)c(N2CCCCC2)c1=O
TGI (CCRF-CEM leukemia): > 100 µM | TGI (SK-MEL-5 melanoma): > 100 µM | TGI (HOP-92 NSCLC): 86.7 µM | TGI (786-0 renal): > 100 µM | TGI (LOX IMVI melanoma): > 100 µM | TGI (HL-60(TB) leukemia): 12.3 µM | TGI (NCI-H460 lung): > 100 µM | TGI (HT29 colon): 69 µM | TGI (HCT-116 colon): > 100 µM | TGI (UO-31 renal): > 100 µM | TGI (EKVX NSCLC): > 100 µM | TGI (SNB-19 CNS): > 100 µM | TGI (SF-268 CNS): > 100 µM

Cn1ccnc1SC(F)(F)c1nc2ccccc2o1
TGI (CCRF-CEM leukemia): > 100 µM | TGI (SK-MEL-5 melanoma): > 100 µM | TGI (HS 578T breast): > 100 µM | TGI (HOP-92 NSCLC): > 100 µM | TGI (OVCAR-5 ovarian): > 100 µM | TGI (SF-295 CNS): > 100 µM | TGI (RPMI-8226 leukemia): > 100 µM | TGI (786-0 renal): > 100 µM | TGI (NCI-H460 lung): > 100 µM | TGI (HT29 colon): > 100 µM | TGI (DU-145 prostate): > 100 µM | TGI (HCT-116 colon): > 100 µM | TGI (UO-31 renal): > 100 µM | TGI (PC-3 prostate): > 100 µM | TGI (SF-268 CNS): > 100 µM

COc1ccc(NC(=O)CSc2nnc(Cc3ccccc3)o2)cc1
TGI (CCRF-CEM leukemia): > 100 µM | TGI (SK-MEL-5 melanoma): > 100 µM | TGI (OVCAR-5 ovarian): > 100 µM | TGI (SF-295 CNS): > 100 µM | TGI (RPMI-8226 leukemia): > 100 µM | TGI (786-0 renal): > 100 µM | TGI (LOX IMVI melanoma): > 100 µM | TGI (NCI-H460 lung): > 100 µM | TGI (HT29 colon): > 100 µM | TGI (HCT-116 colon): > 100 µM | TGI (UO-31 renal): > 100 µM | TGI (SNB-19 CNS): > 100 µM | TGI (SF-268 CNS): > 100 µM

CC(C)N(CCCNc1c2ccccc2nc2cccc([N+](=O)[O-])c12)C(C)C
TGI (CCRF-CEM leukemia): 0.0806 µM | TGI (SK-MEL-5 melanoma): < 0.0156 µM | TGI (HOP-92 NSCLC): < 0.01 µM | TGI (SF-295 CNS): < 0.0457 µM | TGI (RPMI-8226 leukemia): < 0.0192 µM | TGI (786-0 renal): 0.155 µM | TGI (LOX IMVI melanoma): 0.0637 µM | TGI (NCI-H460 lung): < 0.0445 µM | TGI (HT29 colon): 0.0935 µM | TGI (DU-145 prostate): < 0.01 µM | TGI (HCT-116 colon): 0.391 µM | TGI (PC-3 prostate): 0.527 µM | TGI (SNB-19 CNS): 0.121 µM
